Data published in patent publication US12709596B2, “Molecules” (ENA Respiratory Pty Ltd, priority 2019, dated 2026).

How the values were obtained:
[1] = Stability II: 9 day stability under accelerated conditions in EDTA/saline pH 5 by HPLC; assay type: physicochemical; conditions: 40° C./75% RH, 9 days
Procedure: Stability was measured using reversed phase HPLC with a UV detector analytical wavelength of 205 nm. Peak areas of each compound at the 9 day time point were compared with areas at time zero. Compound stability at day 9 was calculated as a percentage of the time zero peak area data. Compound stability was further assessed by comparison with a reference sample of the same compound. […] Thawed samples were sonicated and measured by HPLC.

human TLR2 (hTLR2) = target: T1, human TLR2 (hTLR2) (Homo sapiens, UniProt O60603); assay: HEK-BLUE-hTLR2 cell assay (NF-kB induced SEAP, read at 620 nm); assay type: cell-based; conditions: HEK-BLUE-hTLR2 cells, 16 hr
T1 construct: host or cells: HEK293 (HEK-BLUE-hTLR2)
T1 sequence (O60603 21-784): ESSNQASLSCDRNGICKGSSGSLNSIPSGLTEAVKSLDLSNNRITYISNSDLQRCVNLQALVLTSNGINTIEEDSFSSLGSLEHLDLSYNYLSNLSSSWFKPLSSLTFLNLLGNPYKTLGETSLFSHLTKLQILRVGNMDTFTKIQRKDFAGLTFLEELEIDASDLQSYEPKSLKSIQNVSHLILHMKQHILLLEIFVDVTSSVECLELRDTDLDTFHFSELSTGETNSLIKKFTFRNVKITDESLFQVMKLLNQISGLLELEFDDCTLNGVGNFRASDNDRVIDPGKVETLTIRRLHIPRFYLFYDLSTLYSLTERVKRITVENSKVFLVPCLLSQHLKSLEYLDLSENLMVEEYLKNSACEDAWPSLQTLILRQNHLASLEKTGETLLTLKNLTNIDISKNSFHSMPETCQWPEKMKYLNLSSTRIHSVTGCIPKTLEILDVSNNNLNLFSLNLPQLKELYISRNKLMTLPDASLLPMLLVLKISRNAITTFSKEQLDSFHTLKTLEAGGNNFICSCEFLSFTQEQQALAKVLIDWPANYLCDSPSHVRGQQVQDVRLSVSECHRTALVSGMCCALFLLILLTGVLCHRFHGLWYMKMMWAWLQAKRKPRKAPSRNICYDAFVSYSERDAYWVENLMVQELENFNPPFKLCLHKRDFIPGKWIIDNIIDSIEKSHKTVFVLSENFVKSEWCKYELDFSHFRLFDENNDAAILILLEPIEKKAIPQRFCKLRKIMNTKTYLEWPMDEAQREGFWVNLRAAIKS
T1 sequence (Q9Y2C9 32-796 partner): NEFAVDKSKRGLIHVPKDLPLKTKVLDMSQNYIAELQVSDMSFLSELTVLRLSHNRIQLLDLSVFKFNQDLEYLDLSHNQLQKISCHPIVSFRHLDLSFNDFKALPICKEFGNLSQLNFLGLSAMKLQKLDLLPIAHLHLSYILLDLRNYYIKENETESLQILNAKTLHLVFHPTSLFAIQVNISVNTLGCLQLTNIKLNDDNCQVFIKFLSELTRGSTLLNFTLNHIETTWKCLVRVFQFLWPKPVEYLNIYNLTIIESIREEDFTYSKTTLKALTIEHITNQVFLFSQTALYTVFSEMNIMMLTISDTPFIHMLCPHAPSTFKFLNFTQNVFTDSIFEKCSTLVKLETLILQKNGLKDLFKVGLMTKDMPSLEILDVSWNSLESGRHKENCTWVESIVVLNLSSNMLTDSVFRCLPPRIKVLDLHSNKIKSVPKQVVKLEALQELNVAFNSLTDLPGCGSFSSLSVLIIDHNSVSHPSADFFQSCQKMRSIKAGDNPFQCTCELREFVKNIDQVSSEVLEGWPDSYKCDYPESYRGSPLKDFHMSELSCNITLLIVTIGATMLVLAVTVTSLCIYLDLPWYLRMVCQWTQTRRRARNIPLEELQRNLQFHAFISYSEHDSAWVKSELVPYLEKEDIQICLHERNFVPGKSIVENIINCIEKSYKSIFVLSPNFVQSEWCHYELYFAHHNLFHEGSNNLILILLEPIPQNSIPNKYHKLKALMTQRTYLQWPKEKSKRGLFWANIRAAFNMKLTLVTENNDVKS
Procedure: The potency of the compounds as activators of human TLR-2s is tested in an in vitro assay in HEK-BLUE-hTLR2 cells.
HEK-BLUE-hTLR2 cells are designed for studying the stimulation of human TLR2 (hTLR2) by monitoring the activation of NF-kB. HEK-BLUE-hTLR2 cells are obtained by co-transfection of the hTLR2 and SEAP (secreted embryonic alkaline phosphatase) reporter genes into HEK293 cells. Stimulation with a TLR2 ligand activates NF-kB which induces the production of SEAP.
HEK-BLUE-hTLR2 cells were purchased from InvivoGen (San Diego, CA, USA). Cells were grown in DMEM supplemented with 10% FCS, 100 U/ml penicillin, 100 ug/ml streptomycin and 2 mM L-glutamine, 100 μg/mL Normocin in the presence of selection antibiotic purchased from InvivoGen and passaged when 70% confluence was reached per manufacturer's recommendation. […]

stability over the 9 day test period ([1]; pH 5 EDTA/saline): substantial stability | stability under the accelerated conditions relative to comparator compound ([1]; versus compound (8) of WO2019/119067): superior stability | TLR2 activity (HEK-BLUE-hTLR2 assay, FIG. 4) (human TLR2 (hTLR2)): significant activity at TLR2
SMILES: CCCCCCCCCCCCCCC(C)C(=O)OCC[C@H](CSC[C@H](N)C(=O)N[C@@H](CO)C(=O)NCCOCCOCCOCCOCCOCCOCCOCCOCCOCCOCCOCCOCCOCCOCCOCCOCCOCCOCCOCCOCCOCCOCCOCCOCCOCCOCCOCCOCCC(=O)NCC(N)=O)OC(=O)C(C)CCCCCCCCCCCCCC (stereo partly drawn) [Compound 36]
